Tested on: diamondback moth, Plutella xylostella
Experiment: Bioassay on treated cabbage plants (track sprayer, 400 L/Ha) infested with second instar diamondback moth; synergy judged by Colby's equation
Type: in vivo
Text: The method described in Colby S. R., “Calculating Synergistic and Antagonistic Responses of Herbicide Combinations,” Weeds, 1967, 15, 20-22 was used to determine an existence of synergic effect between the inhibitor of chitin biosynthesis, type 1 compound and the pesticide (I), (II), or any agriculturally acceptable salt thereof in the formulated pesticidal composition. In this method, the percent insect control of the formulated pesticidal composition as observed in the study was compared to the “expected” percent control (E) as calculated by equation (1) (hereinafter “Colby's equation”) below:
[formula] where • X is the percentage of control with the first pesticide at a given rate (p), • Y is the percentage of control with the second pesticide at a given rate (q), and • E is the expected control by the first and second pesticide at a rate of p+q.
Bioassays were performed for different active compounds. Cabbage plants with about two to three new-growth-true leaf stage were treated with different active compounds using a track sprayer application at 400 L/Ha spray volume. Three second instar diamondback moth, Plutella xylostella, were infested onto each leaf disc. The percent control of the pesticidal composition against diamondback moth, Plutella xylostella, was determined as the “Observed” action, and compared to those obtained by using about 0.000625 weight % of compound I, and using about 0.000625 weight % of buprofezin alone. The “Colby's Expected Action” was calculated using Colby's equation as discussed previously.
Bioassays were performed wherein different active compounds were tested against diamondback moth, Plutella xylostella, using the procedure described in example 5A.
Bioassays may be performed for different active compounds against diamondback moth, Plutella xylostella, using the procedure described in example 5A. The percent control may be determined after three days after the treatment.

[1] = Example 5A, active used alone, dose rate 0.000625 weight %, diamondback moth on cabbage

Structure (SMILES): CCN(C(=O)CCSCCC(F)(F)F)c1cn(-c2cccnc2)nc1Cl [Compound I, N-(3-chloro-1-(pyridin-3-yl)-1H-pyrazol-4-yl)-N-ethyl-3-((3,3,3-trifluoropropyl)thio)propanamide]
- % Control Three Days After Treatment [1]: no control
- % Control Three Days After Treatment (Example 5B, compound I alone, dose rate 0.000625 weight %): 0%
- % Control Three Days After Treatment (Example 5B, compound I alone, dose rate 0.000625 weight %, listed as compound I): no control
- % Control Three Days After Treatment (Example 5C, compound I alone, dose rate 0.0025 weight %): 0%
- % Control Three Days After Treatment (Example 5C, compound I alone, dose rate 0.0025 weight %, listed as compound I): no control

Structure (SMILES): CC(C)N1C(=O)N(c2ccccc2)CS/C1=N\C(C)(C)C [Buprofezin, (E,Z)-2-tert-butylimino-3-isopropyl-5-phenyl-1,3,5-thiadiazinan-4-one]
- % Control Three Days After Treatment [1]: 0%
- % Control Three Days After Treatment (Example 5A, active used alone, dose rate 0.000625 weight %, diamondback moth on cabbage, listed as buprofezin): no control
- % Control Three Days After Treatment (Example 5B, buprofezin alone, dose rate 0.0025 weight %): 0%
- % Control Three Days After Treatment (Example 5B, buprofezin alone, dose rate 0.0025 weight %, listed as buprofezin): no control
- % Control Three Days After Treatment (Example 5C, buprofezin alone, dose rate 0.000625 weight %): 0%
- % Control Three Days After Treatment (Example 5C, buprofezin alone, dose rate 0.000625 weight %, listed as buprofezin): no control
